Results published in patent US11535627B2, “Pyrimidine derivative compound, pharmaceutically acceptable salt thereof, preparation process thereof, and pharmaceutical composition using the same” (Spark Biopharma, Inc., priority 2016, dated 2022).

Key:
[1] = target: LRS-RagD interaction (Homo sapiens, UniProt Q9P2J5); test: ELISA of LRS-RagD interaction; type: binding
Protocol: His-tagged human LRS proteins were diluted in carbonate buffer (100 mM, pH 9.6) to the concentration of 0.5 ng μl^−1. […] Protein from each well was removed and washed three times with PBS mixed with 0.05% Tweed® 20 (PBST), subjected to blocking with PBS containing 5% bovine serum albumin (BSA) for 2 hours. Each well was washed with PBST, followed by the treatment of a compound and GST-tagged human RagD protein simultaneously for 3 hours. GST protein itself was used as a negative control. Each well was treated with GST antibody diluted in PBST and incubated at room temperature for 1 h. After washing with PBST, the HRP-conjugated anti-horse IgG secondary antibody was incubated at room temperature for 1 h. TMB was added to each well for colorimetric development. […] To stop the chemical reaction, the treatment with 1 m H3PO4 was done. Finally, absorbance at 450 nm were measured.

[2] = target: T1, Human LRS proteins (Homo sapiens, UniProt Q9P2J5); test: Surface plasmon resonance (SPR) binding to LRS; conditions: purified LRS
T1 construct: His
Protocol: The dissociation […] constant (KD) toward His-LRS proteins was determined by using SPR instrument (Biacore T100) at the national center for inter-university research facilities (NCIRF) in Seoul National University. The carboxyl group on the surface of CMS chip was able to be replaced with protein by forming reactive succinimide ester with 1-ethyl-3-(3-dimethylaminopropyl)-carbodiimide (EDC) and N-hydroxysuccinimide (NHS). Human LRS proteins (1.5×PBS, pH 7.3) were immobilized on flow cell 2 (imed RU; 12000) by leading to amide bond formation with NHS ester. The residual NHS ester was quenched with 1 M ethanolamine-HCl (pH 8.0). Amide bond formation alone, without any protein t, was performed on flow cell 1 as a control. The immobilization process was proceeded on PBS buffer. After the immobilization of hLRS, compounds were flowed for 60 s at a flow rate of 20 μl min^−1 in various concentrations from 1 μM to […] was then flowed at the same flow rate for 200 s for dissociation of compounds. As a running buffer, 1×PBS (pH 7.3) containing 3% DMSO and 0.005% P2O was used. The experiment was performed at 25° C. Data analysis was done by using Biacore T100 Evaluation software. […] The dissociation constant (KD) was calculated by fitting to the 1:1 binding model.

LRS-RagD interaction, sequence (Q9P2J5 whole entry): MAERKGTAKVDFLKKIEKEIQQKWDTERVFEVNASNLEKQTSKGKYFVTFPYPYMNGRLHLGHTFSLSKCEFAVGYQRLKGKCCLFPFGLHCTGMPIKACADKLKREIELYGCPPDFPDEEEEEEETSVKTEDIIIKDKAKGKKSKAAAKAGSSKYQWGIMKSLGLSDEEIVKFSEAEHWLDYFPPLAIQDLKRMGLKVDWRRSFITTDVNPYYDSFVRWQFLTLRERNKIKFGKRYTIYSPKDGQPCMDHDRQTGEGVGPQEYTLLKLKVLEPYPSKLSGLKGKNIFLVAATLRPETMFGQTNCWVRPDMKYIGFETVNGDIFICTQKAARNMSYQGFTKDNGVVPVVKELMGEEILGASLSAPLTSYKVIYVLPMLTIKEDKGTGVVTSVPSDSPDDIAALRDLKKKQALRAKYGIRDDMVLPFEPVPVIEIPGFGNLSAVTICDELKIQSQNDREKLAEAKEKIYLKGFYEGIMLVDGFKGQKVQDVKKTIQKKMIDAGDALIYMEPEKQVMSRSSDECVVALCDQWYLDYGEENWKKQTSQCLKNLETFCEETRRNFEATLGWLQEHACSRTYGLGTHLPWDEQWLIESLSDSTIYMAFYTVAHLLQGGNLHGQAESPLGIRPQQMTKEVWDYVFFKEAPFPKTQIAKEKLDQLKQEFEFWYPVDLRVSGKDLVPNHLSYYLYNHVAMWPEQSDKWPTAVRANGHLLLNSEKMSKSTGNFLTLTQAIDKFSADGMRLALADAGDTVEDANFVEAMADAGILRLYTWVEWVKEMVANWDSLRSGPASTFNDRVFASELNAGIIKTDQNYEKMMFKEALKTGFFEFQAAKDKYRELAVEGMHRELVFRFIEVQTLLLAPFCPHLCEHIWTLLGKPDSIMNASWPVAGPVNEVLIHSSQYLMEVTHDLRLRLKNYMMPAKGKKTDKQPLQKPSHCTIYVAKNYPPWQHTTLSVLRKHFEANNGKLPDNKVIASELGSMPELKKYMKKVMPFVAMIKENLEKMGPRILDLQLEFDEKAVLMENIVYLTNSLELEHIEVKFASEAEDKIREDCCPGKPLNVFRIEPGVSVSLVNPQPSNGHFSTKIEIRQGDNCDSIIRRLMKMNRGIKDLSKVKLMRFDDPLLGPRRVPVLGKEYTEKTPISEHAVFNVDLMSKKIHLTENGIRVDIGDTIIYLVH
T1 sequence (Q9P2J5 whole entry): as above

melting point [°C] | Compound | dose-dependent inhibition of the LRS-RagD interaction (dose-response curves in ELISA) [1] | concentration-dependent binding to LRS (SPR) [2]
101 to 103 | CN(Cc1ccccc1)c1ncnc2c1[C@@H]1OC[C@H](CN2)N1S(=O)(=O)c1cccc([N+](=O)[O-])c1 | – | –
– | CN(Cc1ccccc1)c1ncnc2c1C1OC[C@@H](CN2)N1C(=O)OC(C)(C)C [Compound 14f] | did not inhibit the LRS-RagD interaction in a dose-dependent manner | did not bind to LRS in a concentration-dependent manner
196 to 198 | CN(Cc1ccccc1)c1ncnc2c1CN1[C@@H](CN2)COCS1(=O)=O [Compound 18f] | did not inhibit the LRS-RagD interaction in a dose-dependent manner | –
– | CN(Cc1ccccc1)c1ncnc2c1CN1C(=O)COC[C@@H]1CN2 [Compound 19f] | did not inhibit the LRS-RagD interaction in a dose-dependent manner | did not bind to LRS in a concentration-dependent manner

Compound | melting point [°C] | dose-dependent inhibition of the LRS-RagD interaction (dose-response curves in ELISA) [1] | concentration-dependent binding to LRS (SPR) [2]
CN(Cc1ccccc1)c1ncnc2c1[C@@H]1OC[C@H](CN2)N1C(=O)NCc1ccccc1 [Compound 15f] | 67 to 69 | did not inhibit the LRS-RagD interaction in a dose-dependent manner | –
